Assay results: patent US10947242B2, “[1,2,4]triazolo[1,5and#8208;A]pyrimidine compounds as PDE2 inhibitors” (Janssen Pharmaceutica NV, priority 2016, dated 2021)

Target: T1, Rat recombinant PDE10A (rPDE10A2) (Rattus norvegicus, UniProt Q9QYJ6)
T1 construct: His tag (inferred from metal chelate purification); made in house; host or cells: Sf9 insect cells (baculovirus)
T1 sequence (Q9QYJ6 1-794): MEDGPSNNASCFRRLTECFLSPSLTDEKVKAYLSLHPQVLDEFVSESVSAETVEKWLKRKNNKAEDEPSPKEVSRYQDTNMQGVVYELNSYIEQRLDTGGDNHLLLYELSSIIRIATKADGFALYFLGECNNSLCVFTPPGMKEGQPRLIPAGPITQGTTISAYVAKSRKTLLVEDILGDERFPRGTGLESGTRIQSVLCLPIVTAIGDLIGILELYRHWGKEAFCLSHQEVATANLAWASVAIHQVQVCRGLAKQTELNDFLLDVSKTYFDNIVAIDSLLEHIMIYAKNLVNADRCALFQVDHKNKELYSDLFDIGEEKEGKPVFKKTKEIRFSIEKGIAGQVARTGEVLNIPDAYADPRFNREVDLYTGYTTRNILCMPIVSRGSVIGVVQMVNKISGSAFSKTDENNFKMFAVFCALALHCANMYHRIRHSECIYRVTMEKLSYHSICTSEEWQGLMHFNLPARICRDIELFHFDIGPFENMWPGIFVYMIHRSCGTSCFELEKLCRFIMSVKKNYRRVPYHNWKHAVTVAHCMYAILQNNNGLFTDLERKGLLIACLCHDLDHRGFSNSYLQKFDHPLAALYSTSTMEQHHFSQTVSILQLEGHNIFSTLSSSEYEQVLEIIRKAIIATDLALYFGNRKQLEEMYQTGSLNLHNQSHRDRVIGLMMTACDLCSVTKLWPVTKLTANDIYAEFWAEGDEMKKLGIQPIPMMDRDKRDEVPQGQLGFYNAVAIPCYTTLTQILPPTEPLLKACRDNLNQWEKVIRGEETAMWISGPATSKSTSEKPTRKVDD
Assay: In vitro assay PDE10A, rat clone (SPA, 3H-cAMP hydrolysis)
Assay type: biochemical
Procedure: Rat recombinant PDE10A (rPDE10A2) was expressed in Sf9 cells using a recombinant rPDE10A baculovirus construct. Cells were harvested after 48 h of infection and the rPDE10A protein was purified by metal chelate chromatography on Ni-sepharose 6FF. Tested compounds were dissolved and diluted in 100% DMSO to a concentration 100 fold of the final concentration in the assay. Human recombinant PDE10A ([…]) was expressed in Sf9 cells using a recombinant hPDE10A baculovirus that was made and amplified in house. Cells were harvested after 72 h of infection and the hPDE10A protein was purified by metal chelate chromatography on Ni-sepharose. Compound dilutions (0.4 μl) were added in 384 well plates to 20 μl of incubation buffer (50 mM Tris pH 7.8, 8.3 mM MgCl2, 1.7 mM EGTA). 10 μl of rPDE10A or hPDE10A enzyme in incubation buffer was added and the reaction was started by addition of 10 μl substrate to a final concentration of 60 nM cAMP and 0.008 μCi ^3H-cAMP. The reaction was incubated for 60 minutes at room temperature. After incubation, the reaction was stopped with 20 μl of stop solution consisting of 17.8 mg/ml PDE SPA (scintillation proximity assay) beads. After sedimentation of the beads during 30 minutes the radioactivity was measured in a Perkin Elmer Topcount scintillation counter and results were expressed as cpm. For blanc values the enzyme was omitted from the reaction and replaced by incubation buffer. Control values were obtained by addition of a final concentration of 1% DMSO instead of compound. A best fit curve is fitted by a minimum sum of squares method to the plot of % of control value subtracted with blanc value versus compound concentration and the half maximal inhibitory concentration (IC50) value is derived from this curve.

- Emax (rat clone (r)): 98%
- IC50 (rat clone (r), read-out: rPDE10A2 pIC50 (converted)): 12 nM
- rPDE10A2 pIC50 (rat clone, indicated as (r)): 7.92 (r)
SMILES: C[C@@H]1CCN(C(=O)c2ccc3c(ccn3CCF)c2)C[C@H]1c1cc(C(F)F)nc2ncnn12 [Compound 89]
